Source: US10294202B2, “Pyrrolidinones as herbicides” (FMC Corporation, priority 2013, dated 2019)

Experiments:
sedge, umbrella = experiment: Test B flooded paddy test; assay type: in vivo, Cyperus difformis; conditions: 250 g ai/ha, Flood; scale of 0 to 100 where 0 is no effect and 100 is complete control
Method in brief: (§1)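 Plants were grown to the 2-leaf stage, then pots were flooded to 3 cm above the soil and compound was applied directly into the paddy water, with that depth held throughout. After 13 to 15 days in a greenhouse, injury was rated visually against untreated controls on a 0 to 100 scale (100 = complete control).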

ducksalad = experiment: Test B flooded paddy test; assay type: in vivo, Heteranthera limosa; conditions: 250 g ai/ha, Flood; scale of 0 to 100 where 0 is no effect and 100 is complete control
Method in brief: as §1

barnyardgrass = experiment: Test B flooded paddy test; assay type: in vivo, Echinochloa crus-galli; conditions: 250 g ai/ha, Flood; scale of 0 to 100 where 0 is no effect and 100 is complete control
Method in brief: as §1

ryegrass, Italian = experiment: Test C pre-/postemergence herbicide test; assay type: in vivo, Lolium multiflorum; conditions: Preemergence; for Ryegrass, Italian plant response rating: 31 g ai/ha, scale 0 to 100, 0 is no effect and 100 is complete control
Method in brief: (§2)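 Response scores range from 0, meaning no effect, to 100, meaning complete control, assigned visually by comparison with controls roughly two weeks (13 to 15 days) after spraying. Applications were made preemergence to seeded loam–sand soil and postemergence to 1- to 4-leaf plants.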

wheat (winter wheat) = experiment: Test C pre-/postemergence herbicide test; assay type: in vivo, Triticum aestivum; conditions: Preemergence; for Wheat plant response rating: 31 g ai/ha, scale 0 to 100, 0 is no effect and 100 is complete control
Method in brief: as §2

galium = experiment: Test C pre-/postemergence herbicide test; assay type: in vivo, Galium aparine; conditions: Preemergence; for Galium plant response rating: 31 g ai/ha
Method in brief: as §2

corn = experiment: Test C pre-/postemergence herbicide test; assay type: in vivo, Zea mays; conditions: Preemergence; for Corn plant response rating: 31 g ai/ha
Method in brief: as §2

lambsquarters = experiment: Test C pre-/postemergence herbicide test; assay type: in vivo, Chenopodium album; conditions: Preemergence; for Lambsquarters plant response rating: 31 g ai/ha, scale 0 to 100, 0 is no effect and 100 is complete control
Method in brief: as §2

morningglory = experiment: Test C pre-/postemergence herbicide test; assay type: in vivo, Ipomoea coccinea; conditions: Preemergence; for Morningglory plant response rating: 31 g ai/ha, scale 0 to 100, 0 is no effect and 100 is complete control
Method in brief: as §2

pigweed = experiment: Test C pre-/postemergence herbicide test; assay type: in vivo, Amaranthus retroflexus; conditions: Preemergence; for Pigweed plant response rating: 31 g ai/ha, scale 0 to 100, 0 is no effect and 100 is complete control
Method in brief: as §2

ragweed = experiment: Test C pre-/postemergence herbicide test; assay type: in vivo, Ambrosia elatior; conditions: Preemergence; for Ragweed plant response rating: 31 g ai/ha, scale 0 to 100, 0 is no effect and 100 is complete control
Method in brief: as §2

soybean = experiment: Test C pre-/postemergence herbicide test; assay type: in vivo, Glycine max; conditions: Preemergence; for Soybean plant response rating: 31 g ai/ha, scale 0 to 100, 0 is no effect and 100 is complete control
Method in brief: as §2

oat, wild = experiment: Test C pre-/postemergence herbicide test; assay type: in vivo, Avena fatua; conditions: Preemergence
Method in brief: as §2

[1] = 125 g ai/ha, scale 0 to 100 (0 no effect, 100 complete control)
[2] = scale 0 to 100 (0 no effect, 100 complete control)
[3] = 250 g ai/ha, scale 0 to 100 (0 no effect, 100 complete control)
[4] = scale 0 to 100, 0 is no effect and 100 is complete control

## O=C1NCC(c2ccc3c(c2)OC(F)(F)O3)C1C(=O)Nc1cccc(F)c1F (centres unmarked) [Compound 62]
sedge, umbrella
  Plant response rating, Sedge, Umbrella: 80
ducksalad
  Plant response rating, Ducksalad: 75
barnyardgrass
  Plant response rating, Barnyardgrass: 20
ryegrass, Italian; 62 g ai/ha, scale 0 to 100
  Plant response rating, Ryegrass, Italian: 0
ryegrass, Italian; [1]
  Plant response rating, Ryegrass, Italian: 30
Wheat (winter wheat); 62 g ai/ha, scale 0 to 100
  Plant response rating, Wheat: 0
Wheat (winter wheat); [1]
  Plant response rating, Wheat: 0
galium; [2]
  Galium plant response rating: 0
galium; 62 g ai/ha, scale 0 to 100
  Plant response rating, Galium: 0
galium; [1]
  Plant response rating, Galium: 85
galium; [3]
  Plant response rating, Galium: 90
corn; [2]
  Corn plant response rating: 20
corn; 62 g ai/ha, scale 0 to 100
  Plant response rating, Corn: 20
corn; [1]
  Plant response rating, Corn: 30
corn; [3]
  Plant response rating, Corn: 55
lambsquarters; 62 g ai/ha, scale 0 to 100
  Plant response rating, Lambsquarters: 65
lambsquarters; [1]
  Plant response rating, Lambsquarters: 70
morningglory; 62 g ai/ha, scale 0 to 100
  Plant response rating, Morningglory: 10
morningglory; [1]
  Plant response rating, Morningglory: 15
pigweed; 62 g ai/ha, scale 0 to 100
  Plant response rating, Pigweed: 40
pigweed; [1]
  Plant response rating, Pigweed: 70
ragweed; 62 g ai/ha, scale 0 to 100
  Plant response rating, Ragweed: 15
ragweed; [1]
  Plant response rating, Ragweed: 45
soybean; 62 g ai/ha, scale 0 to 100
  Plant response rating, Soybean: 30
soybean; [1]
  Plant response rating, Soybean: 35
oat, wild; 62 g ai/ha, scale 0 to 100
  Plant response rating, Oat, Wild: 40
oat, wild; [1]
  Plant response rating, Oat, Wild: 50

## O=C1NCC(c2cccc(Br)c2)C1C(=O)Nc1cccc(F)c1F (centres unmarked) [Compound 64]
sedge, umbrella
  Plant response rating, Sedge, Umbrella: 40
ducksalad
  Plant response rating, Ducksalad: 80
barnyardgrass
  Plant response rating, Barnyardgrass: 0
ryegrass, Italian; 62 g ai/ha, scale 0 to 100
  Plant response rating, Ryegrass, Italian: 0
ryegrass, Italian; [1]
  Plant response rating, Ryegrass, Italian: 0
Wheat (winter wheat); 62 g ai/ha, scale 0 to 100
  Plant response rating, Wheat: 5
Wheat (winter wheat); [1]
  Plant response rating, Wheat: 15
galium; [2]
  Galium plant response rating: 0
galium; 62 g ai/ha, scale 0 to 100
  Plant response rating, Galium: 0
galium; [1]
  Plant response rating, Galium: 0
galium; [3]
  Plant response rating, Galium: 0
corn; [2]
  Corn plant response rating: 0
corn; 62 g ai/ha, scale 0 to 100
  Plant response rating, Corn: 0
corn; [1]
  Plant response rating, Corn: 55
corn; [3]
  Plant response rating, Corn: 60
lambsquarters; 62 g ai/ha, scale 0 to 100
  Plant response rating, Lambsquarters: 10
lambsquarters; [1]
  Plant response rating, Lambsquarters: 30
morningglory; 62 g ai/ha, scale 0 to 100
  Plant response rating, Morningglory: 20
morningglory; [1]
  Plant response rating, Morningglory: 20
pigweed; 62 g ai/ha, scale 0 to 100
  Plant response rating, Pigweed: 0
pigweed; [1]
  Plant response rating, Pigweed: 30
ragweed; 62 g ai/ha, scale 0 to 100
  Plant response rating, Ragweed: 0
ragweed; [1]
  Plant response rating, Ragweed: 30
soybean; 62 g ai/ha, scale 0 to 100
  Plant response rating, Soybean: 35
soybean; [1]
  Plant response rating, Soybean: 40
oat, wild; 62 g ai/ha, scale 0 to 100
  Plant response rating, Oat, Wild: 10
oat, wild; [1]
  Plant response rating, Oat, Wild: 10

## O=C1NCC(c2cccc(Br)c2)C1C(=O)Nc1ccccc1F (centres unmarked) [Compound 66]
sedge, umbrella
  Plant response rating, Sedge, Umbrella: 50
ducksalad
  Plant response rating, Ducksalad: 75
barnyardgrass
  Plant response rating, Barnyardgrass: 0
ryegrass, Italian
  Ryegrass, Italian plant response rating: 0
ryegrass, Italian; 62 g ai/ha, scale 0 to 100
  Plant response rating, Ryegrass, Italian: 0
ryegrass, Italian; [1]
  Plant response rating, Ryegrass, Italian: 0
Wheat (winter wheat)
  Wheat plant response rating: 0
Wheat (winter wheat); 62 g ai/ha, scale 0 to 100
  Plant response rating, Wheat: 0
Wheat (winter wheat); [1]
  Plant response rating, Wheat: 5
galium; [4]
  Galium plant response rating: 0
galium; 62 g ai/ha, scale 0 to 100
  Plant response rating, Galium: 0
galium; [1]
  Plant response rating, Galium: 0
galium; [3]
  Plant response rating, Galium: 0
corn; [4]
  Corn plant response rating: 0
corn; 62 g ai/ha, scale 0 to 100
  Plant response rating, Corn: 0
corn; [1]
  Plant response rating, Corn: 10
corn; [3]
  Plant response rating, Corn: 20
lambsquarters
  Lambsquarters plant response rating: 0
lambsquarters; 62 g ai/ha, scale 0 to 100
  Plant response rating, Lambsquarters: 0
lambsquarters; [1]
  Plant response rating, Lambsquarters: 0
morningglory
  Morningglory plant response rating: 15
morningglory; 62 g ai/ha, scale 0 to 100
  Plant response rating, Morningglory: 25
morningglory; [1]
  Plant response rating, Morningglory: 35
pigweed
  Pigweed plant response rating: 0
pigweed; 62 g ai/ha, scale 0 to 100
  Plant response rating, Pigweed: 0
pigweed; [1]
  Plant response rating, Pigweed: 0
ragweed
  Ragweed plant response rating: 10
ragweed; 62 g ai/ha, scale 0 to 100
  Plant response rating, Ragweed: 20
ragweed; [1]
  Plant response rating, Ragweed: 25
soybean
  Soybean plant response rating: 15
soybean; 62 g ai/ha, scale 0 to 100
  Plant response rating, Soybean: 20
soybean; [1]
  Plant response rating, Soybean: 20
oat, wild; 31 g ai/ha, scale 0 to 100, 0 is no effect and 100 is complete control
  Oat, Wild plant response rating: 0
oat, wild; 62 g ai/ha, scale 0 to 100
  Plant response rating, Oat, Wild: 0
oat, wild; [1]
  Plant response rating, Oat, Wild: 0

## O=C1NCC(c2cccc(OC(F)(F)F)c2)C1C(=O)Nc1cccc(F)c1F (centres unmarked) [Compound 68]
sedge, umbrella
  Plant response rating, Sedge, Umbrella: 70
ducksalad
  Plant response rating, Ducksalad: 90
barnyardgrass
  Plant response rating, Barnyardgrass: 40
ryegrass, Italian
  Ryegrass, Italian plant response rating: 0
ryegrass, Italian; 62 g ai/ha, scale 0 to 100
  Plant response rating, Ryegrass, Italian: 0
ryegrass, Italian; [1]
  Plant response rating, Ryegrass, Italian: 0
Wheat (winter wheat)
  Wheat plant response rating: 0
Wheat (winter wheat); 62 g ai/ha, scale 0 to 100
  Plant response rating, Wheat: 5
Wheat (winter wheat); [1]
  Plant response rating, Wheat: 30
galium; [4]
  Galium plant response rating: 0
galium; 62 g ai/ha, scale 0 to 100
  Plant response rating, Galium: 5
galium; [1]
  Plant response rating, Galium: 90
galium; [3]
  Plant response rating, Galium: 90
corn; [4]
  Corn plant response rating: 15
corn; 62 g ai/ha, scale 0 to 100
  Plant response rating, Corn: 25
corn; [1]
  Plant response rating, Corn: 25
corn; [3]
  Plant response rating, Corn: 50
lambsquarters
  Lambsquarters plant response rating: 55
lambsquarters; 62 g ai/ha, scale 0 to 100
  Plant response rating, Lambsquarters: 55
lambsquarters; [1]
  Plant response rating, Lambsquarters: 65
morningglory
  Morningglory plant response rating: 0
morningglory; 62 g ai/ha, scale 0 to 100
  Plant response rating, Morningglory: 0
morningglory; [1]
  Plant response rating, Morningglory: 15
pigweed
  Pigweed plant response rating: 45
pigweed; 62 g ai/ha, scale 0 to 100
  Plant response rating, Pigweed: 75
pigweed; [1]
  Plant response rating, Pigweed: 85
ragweed
  Ragweed plant response rating: 0
ragweed; 62 g ai/ha, scale 0 to 100
  Plant response rating, Ragweed: 0
ragweed; [1]
  Plant response rating, Ragweed: 0
soybean
  Soybean plant response rating: 0
soybean; 62 g ai/ha, scale 0 to 100
  Plant response rating, Soybean: 0
soybean; [1]
  Plant response rating, Soybean: 10
oat, wild; [1]
  Plant response rating, Oat, Wild: 0
